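How tested: cells in 96-well plates exposed to compound for 48 hours at five concentrations. At the GI50, growth is halved.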 Activity calls are given as the source filed them. Cut-off read from the data, not from the text of the source: active = GI50 up to about 1.1 µM and inactive = higher.
Legend:
Assay in all cases: growth of human tumour cells (NCI), 48 h
[1] = system: 786-0
[2] = system: A498
[3] = system: CAKI-1
[4] = system: COLO 205
[5] = system: EKVX
[6] = system: HCT-116
[7] = system: HOP-62
[8] = system: HT-29
[9] = system: M14
[10] = system: NCI-H522
[11] = system: OVCAR-8
[12] = system: RPMI-8226
[13] = system: RXF 393
[14] = system: SF-268
[15] = system: SF-295
[16] = system: SK-MEL-28
[17] = system: SK-MEL-2
[18] = system: UACC-62
[19] = system: CCRF-CEM
[20] = system: HCC 2998

Measured: GI50

Cc1cc2cc3c(O)nc(O)nc3nc2cc1C
inactive: [1] > 100 µM | [2] > 100 µM | [3] > 100 µM | [4] > 100 µM | [5] > 100 µM | [6] > 100 µM | [7] > 100 µM | [8] > 100 µM | [9] > 100 µM | [10] > 100 µM | [11] > 100 µM | [12] > 100 µM | [13] 52.2 µM | [14] > 100 µM | [15] > 100 µM | [16] > 100 µM | [17] > 100 µM | [18] > 100 µM

O=c1c(O)c(-c2cc(O)c(O)cc2O)oc2cc(O)c(C3OC(CO)C(O)C(O)C3O)c(O)c12 (stereo unspecified)
inactive: [1] > 100 µM | [2] > 100 µM | [5] > 100 µM | [6] > 100 µM | [7] > 100 µM | [8] > 100 µM | [9] > 100 µM | [10] > 100 µM | [11] > 100 µM | [12] > 100 µM | [14] > 100 µM | [15] > 100 µM | [16] > 100 µM | [17] > 100 µM | [18] > 100 µM

CCOC(=O)C(=O)CC(=O)C(Br)C(Br)c1ccc(Cl)cc1 (stereo unspecified)
inactive: [1] 17.5 µM | [3] 40.7 µM | [19] 8.36 µM | [4] 23.3 µM | [5] > 100 µM | [20] > 100 µM | [7] > 100 µM | [8] 18.6 µM | [9] 21.8 µM | [10] 23.6 µM | [11] 34.9 µM | [12] 22.3 µM | [13] 30.4 µM | [14] 34.1 µM | [15] > 100 µM | [16] 29.7 µM | [17] > 100 µM | [18] 46 µM

C[s+]1c2ccccc2c2ccccc21
inactive: [1] > 100 µM | [19] > 100 µM | [4] > 100 µM | [5] > 100 µM | [20] > 100 µM | [6] > 100 µM | [7] > 100 µM | [8] > 100 µM | [9] > 100 µM | [10] > 100 µM | [11] > 100 µM | [12] > 100 µM | [13] > 100 µM | [14] > 100 µM | [15] > 100 µM | [16] > 100 µM | [17] > 100 µM | [18] > 100 µM

O=C1c2ccccc2C(=O)N1CC#CCO
inactive: [1] > 100 µM | [2] > 100 µM | [3] > 100 µM | [19] > 100 µM | [5] > 100 µM | [6] > 100 µM | [7] > 100 µM | [8] > 100 µM | [9] > 100 µM | [10] > 100 µM | [11] > 100 µM | [13] > 100 µM | [14] > 100 µM | [15] > 100 µM | [16] > 100 µM | [17] > 100 µM | [18] > 100 µM

CC(C)(C)/N=C\N(C=C(c1ccccc1)c1ccccc1)C1CCCCC1
inactive: [1] 82.4 µM | [2] 23.3 µM | [3] 50.6 µM | [19] 34.8 µM | [4] 22.7 µM | [5] 93.1 µM | [6] 23.4 µM | [7] > 100 µM | [8] 25.9 µM | [11] 91.8 µM | [13] 19.4 µM | [14] 41.1 µM | [15] 32 µM | [16] 35 µM | [17] 60.8 µM | [18] 44.1 µM

N#CC(c1nc2ccccc2s1)c1nc(Cl)ncc1Br (stereo unspecified)
inactive: [1] 30.3 µM | [2] > 100 µM | [3] 33.4 µM | [4] 46.3 µM | [5] 41.8 µM | [6] 23 µM | [7] 34.2 µM | [8] 46.5 µM | [9] 44.6 µM | [10] 20.7 µM | [11] 30.4 µM | [12] 25.4 µM | [13] 26.9 µM | [14] 34 µM | [15] 42.2 µM | [16] 97.9 µM

Cc1ccc(OCC2=NN3C(=O)/C(=C\c4ccc([N+](=O)[O-])o4)SC3N2)cc1 (stereo unspecified)
inactive: [1] 10.2 µM | [2] 17.4 µM | [3] 14.6 µM | [19] 2.99 µM | [4] 3.19 µM | [5] 12.1 µM | [6] 3.63 µM | [7] 16.6 µM | [8] 6.7 µM | [9] 8.47 µM | [10] 1.82 µM | [11] 3.66 µM | [12] 2.16 µM | [13] 14.9 µM | [14] 4.07 µM | [15] 14.8 µM | [16] 12.7 µM | [17] 15.7 µM

From ChEMBL document CHEMBL1201862, “PubChem BioAssay data set” (2004)
